In this experiment the target is T1, RORc (Homo sapiens, UniProt P51449).
T1 construct: host or cells: E. coli
T1 sequence (P51449 269-508 limits assumed): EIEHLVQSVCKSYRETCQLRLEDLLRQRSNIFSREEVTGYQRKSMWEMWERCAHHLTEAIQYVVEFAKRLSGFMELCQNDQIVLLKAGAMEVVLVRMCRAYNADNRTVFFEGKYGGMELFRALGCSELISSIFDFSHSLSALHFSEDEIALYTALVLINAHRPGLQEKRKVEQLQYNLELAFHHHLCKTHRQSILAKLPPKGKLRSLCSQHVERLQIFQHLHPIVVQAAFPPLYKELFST
Put plainly: In Vitro RORc Ligand Binding Assay. Conditions: IC50 values for RORc.

Structures are written as SMILES.

As a reminder, the IC50 is the point on the concentration scale where inhibition reaches its midpoint. A high value points to a need for much substance. In the case of `CC(NC(=O)Cc1cnoc1)c1cc(F)c(CN2[C@@H](C)CC[C@H](c3ccccc3)S2(=O)=O)cc1F` (stereo partly drawn) [Compound 52, N-[1-[2,5-difluoro-4-[[(3S,6R)-3-methyl-1,1-dioxo-6-phenyl-thiazinan-2-yl]methyl]phenyl]ethyl]-2-isoxazol-4-yl-acetamide], the IC50 turned out to be 0.101 µM.
`CC(NCc1cocn1)c1cc(F)c(CN2[C@@H](C)CC[C@H](c3ccccc3)S2(=O)=O)cc1F` (stereo partly drawn) [Compound 54, 1-[2,5-difluoro-4-[[(3S,6R)-3-methyl-1,1-dioxo-6-phenyl-thiazinan-2-yl]methyl]phenyl]-N-(oxazol-4-ylmethyl)ethanamine] yielded an IC50 of 0.255 µM.

For the origin of these results see patent US20180263996A1, “ARYL SULTAM DERIVATIVES AS RORc MODULATORS” (Genentech, Inc., priority 2015, published 2018).
